Experimental findings from patent US4965066A, “Intranasal administration of 3,3-disubstituted indolines” (E. I. Du Pont de Nemours and Company, priority 1989, dated 1990) are described below.

The nature of the data set: in vivo. As to conditions: rat. The procedure:
Male Lewis rats weighing approximately 300 g were used. […] This dose was administered by gavage. The nasal dose of (1') was administered to rats after surgical isolation of the nasal cavity. The trachea was cannulated to allow free breathing, and a closed tube was inserted anteriorly through the esophagus to block the posterior part of the nasal cavity. The incisive ducts were closed with an adhesive to prevent drainage into the mouth. The dose was administered through the nares with a microliter syringe via polyethylene tubing. […] Serial blood samples (~0.5 ml) were collected into heparinized test tubes after cutting the tip of the tail. […] Aliquots of the acid were injected onto the HPLC. […] Du Pont) attached to a guard column packed with cyano packing. A liter of mobile phase contained […] of 0.1 M acetate buffer at pH 3.5, 480 ml acetontrile, 5 ml tetrahydrofuran, and 0.75 g sodium heptanesulfonate. […] Detection was by ultraviolet (uv) absorbance at 252 nm. The detection limit was 0.12 μg/ml plasma. […] Systemic bioavailability after oral and nasal doses was calculated for each rat as the ratio of AUC^oral or ^nasal /AUC^iv, using the average AUC^iv and correcting for the differences in dose. Values are expressed as percentage (%) of dose.

Some results are limits rather than exact numbers.

For orientation: Tmax means the time from dosing to the highest level. For orientation: AUC means the area under the concentration-time curve, a measure of exposure. What is called bioavailability is dose-corrected exposure relative to a reference, in per cent. High values mean much systemic uptake, low ones little systemic uptake. On to `O=C1N(c2ccccc2)c2ccccc2C1(Cc1ccncc1)Cc1ccncc1` [1'], for which the Tmax (1 mg/kg) is ≤ 10 min. In addition, the “Bioavailability (F)” value (2 mg/kg) is recorded as 100 % of Dose. The same compound showed an AUC at 3 h (4 mg/kg) of 1340 ± 140 ng·h/mL; an AUC at 3 h (iv, 2 mg/kg) of 1260 ± 90 ng·h/mL; an area under the curve (AUC) at 3 h (po, 20 mg/kg) of 1150 ± 240 ng·h/mL. Further, the bioavailability runs as follows: (4 mg/kg, Nasal Bioavailability (F)) 53 ± 5.5%; (po, 20 mg/kg, Oral Bioavailability (F)) 9.1 ± 1.9%.
